Laboratory results from patent US8076338B2, “Kinase modulators and methods of use” (Exelixis, Inc., priority 2004, dated 2011).
Read-outs that look alike come from different tables or passages of the source.

What was measured:
AktK = AktK (Homo sapiens, UniProt P31749); assay: Luciferase-coupled chemiluminescence kinase assay (ATP consumption); format: biochemical; conditions: read-out: AKT-1 IC50
Procedure, shortened: (§1)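 Activity is read as ATP depletion: luciferase-luciferin reagent added after a 3 h ambient-temperature kinase reaction, with total ATP use limited to 25-60%. Before ATP addition, 2.5-5 nM kinase and compound were preincubated 30 min in Tris pH 7.5/MgCl2/TX-100/DTT buffer; […].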

p70S6K = p70S6K (Homo sapiens, UniProt P23443); assay: as above; format: biochemical
Procedure, shortened: as §1

Chain of p70S6K (P23443 whole entry): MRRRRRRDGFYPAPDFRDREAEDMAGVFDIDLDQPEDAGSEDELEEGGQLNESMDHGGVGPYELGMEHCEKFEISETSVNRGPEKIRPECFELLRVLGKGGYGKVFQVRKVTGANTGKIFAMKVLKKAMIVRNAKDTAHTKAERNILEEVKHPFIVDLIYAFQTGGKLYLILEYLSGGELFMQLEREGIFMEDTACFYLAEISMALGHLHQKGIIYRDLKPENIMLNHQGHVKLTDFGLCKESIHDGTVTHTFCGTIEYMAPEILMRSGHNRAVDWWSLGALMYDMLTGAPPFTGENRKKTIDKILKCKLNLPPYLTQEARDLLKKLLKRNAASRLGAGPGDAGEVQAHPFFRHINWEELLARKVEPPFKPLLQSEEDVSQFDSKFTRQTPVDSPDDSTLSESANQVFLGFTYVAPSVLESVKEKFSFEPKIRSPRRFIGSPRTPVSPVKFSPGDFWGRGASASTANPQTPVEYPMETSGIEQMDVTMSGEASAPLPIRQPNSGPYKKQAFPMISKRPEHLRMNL
Chain of AktK (P31749 whole entry): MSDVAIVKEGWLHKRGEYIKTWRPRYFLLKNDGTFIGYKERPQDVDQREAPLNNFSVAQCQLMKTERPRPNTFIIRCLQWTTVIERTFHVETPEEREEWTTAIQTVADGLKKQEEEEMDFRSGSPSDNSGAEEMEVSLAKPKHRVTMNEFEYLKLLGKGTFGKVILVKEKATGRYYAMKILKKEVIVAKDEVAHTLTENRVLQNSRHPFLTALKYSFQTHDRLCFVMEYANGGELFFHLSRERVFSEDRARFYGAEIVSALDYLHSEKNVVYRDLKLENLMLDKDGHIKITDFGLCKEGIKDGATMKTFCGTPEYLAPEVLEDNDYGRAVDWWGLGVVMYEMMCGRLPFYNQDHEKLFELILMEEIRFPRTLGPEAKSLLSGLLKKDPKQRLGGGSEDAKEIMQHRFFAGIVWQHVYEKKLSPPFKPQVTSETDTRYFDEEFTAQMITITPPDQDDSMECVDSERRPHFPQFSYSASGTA

| Structure (SMILES) | IC50 (AktK; Table 1, class symbols per key) [nM] | IC50 (p70S6K; Table 1, class symbols per key) [nM] | IC50 (AktK) [nM] | IC50 (p70S6K) [nM] |
| --- | --- | --- | --- | --- |
| CCc1n[nH]c2ncnc(N3CCN(c4cc(Cl)cc(OCCN5CCN(CC)CC5)c4C)CC3)c12 [Entry 25, 4-[4-(5-chloro-3-{[2-(4-ethylpiperazin-1-yl)ethyl]oxy}-2-methylphenyl)piperazin-1-yl]-3-ethyl-1H-pyrazolo[3,4-d]pyrimidine] | 1000 to 10000 | < 100 |  |  |
| Cc1c(OCCN2CCN(C)CC2)cc(Cl)cc1N1CCN(c2ncnc3[nH]nc(Br)c23)CC1 [Entry 72, 3-bromo-4-[4-(5-chloro-2-methyl-3-{[2-(4-methylpiperazin-1-yl)ethyl]oxy}phenyl)piperazin-1-yl]-1H-pyrazolo[3,4-d]pyrimidine] | 100 to 1000 | < 100 |  |  |
| c1ccc(N2CCN(c3ncnc4[nH]ncc34)CC2)cc1 [Entry 297, 4-(4-phenylpiperazin-1-yl)-1H-pyrazolo[3,4-d]pyrimidine] |  |  | ≥ 10000 | 100 to 1000 |
| CCc1n[nH]c2ncnc(N3CCN(c4cc(Cl)cc(N5CCOCC5)c4C)CC3)c12 [Entry 361, 4-[4-(5-chloro-2-methyl-3-morpholin-4-ylphenyl)piperazin-1-yl]-3-ethyl-1H-pyrazolo[3,4-d]pyrimidine] |  |  | 1000 to 10000 | 100 to 1000 |
| Brc1n[nH]c2ncnc(N3CCN(c4nccc(-c5ccco5)n4)CC3)c12 [Entry 143, 3-bromo-4-[4-(4-furan-2-ylpyrimidin-2-yl)piperazin-1-yl]-1H-pyrazolo[3,4-d]pyrimidine] | ≥ 10000 | 100 to 1000 |  |  |
| Cc1c(Br)cc(Cl)cc1N1CCN(c2nc(N)nc3[nH]ncc23)CC1 [Entry 159, 4-[4-(3-bromo-5-chloro-2-methylphenyl)piperazin-1-yl]-1H-pyrazolo[3,4-d]pyrimidin-6-amine] | ≥ 10000 | 1000 to 10000 |  |  |
| Cc1ccc(Cl)cc1N1CCN(c2ncnc3[nH]nc(-c4ccncc4)c23)CC1 [Entry 364, 4-[4-(5-chloro-2-methylphenyl)piperazin-1-yl]-3-pyridin-4-yl-1H-pyrazolo[3,4-d]pyrimidine] |  |  | 1000 to 10000 | < 100 |
| COC(=O)c1cc(NCCN2CCCC2)c(C)c(N2CCN(c3ncnc4[nH]nc(Br)c34)CC2)c1 [Entry 190, methyl 3-[4-(3-bromo-1H-pyrazolo[3,4-d]pyrimidin-4-yl)piperazin-1-yl]-4-methyl-5-[(2-pyrrolidin-1-ylethyl)amino]benzoate] | < 100 | < 100 |  |  |
| Fc1ccc(N2CCN(c3ncnc4[nH]cnc34)CC2)cc1 [Entry 309, 6-[4-(4-fluorophenyl)piperazin-1-yl]-9H-purine] |  |  | ≥ 10000 | 1000 to 10000 |
| COc1ccc(N2CCN(c3ncnc4[nH]ccc34)CC2)cc1 [Entry 304, 4-{4-[4-(methyloxy)phenyl]piperazin-1-yl}-7H-pyrrolo[2,3-d]pyrimidine] |  |  | ≥ 10000 | 1000 to 10000 |
| Cc1c(NCCN2CCCC2)cc(OCC(C)(C)F)cc1N1CCN(c2ncnc3[nH]nc(Br)c23)CC1 [Entry 216, 3-[4-(3-bromo-1H-pyrazolo[3,4-d]pyrimidin-4-yl)piperazin-1-yl]-5-[(2-fluoro-2-methylpro-pyl)oxy]-2-methyl-N-(2-pyrrolidin-1-ylethyl)aniline] | < 100 | < 100 |  |  |
| FC(F)(F)c1cccnc1N1CCN(c2ncnc3[nH]nc(Br)c23)CC1 [Entry 135, 3-bromo-4-{4-[3-(trifluoromethyl)pyridin-2-yl]piperazin-1-yl}-1H-pyrazolo[3,4-d]pyrimidine] | ≥ 10000 | 100 to 1000 |  |  |
| Cc1c(NCCN2CCCC2)cc(C(=O)NOCC2CC2)cc1N1CCN(c2ncnc3[nH]nc(Br)c23)CC1 [Entry 258, 3-[4-(3-bromo-1H-pyrazolo[3,4-d]pyrimidin-4-yl)piperazin-1-yl]-N-[(cyclopropylmethyl)oxy]-4-methyl-5-[(2-pyrrolidin-1-ylethyl)amino]benzamide] | 100 to 1000 | < 100 |  |  |
| Cc1c(NCCN2CCCC2)cc(C(=O)CCC(F)(F)F)cc1N1CCN(c2ncnc3[nH]nc(Br)c23)CC1 [Entry 274, 1-{3-[4-(3-bromo-1H-pyrazolo[3,4-d]pyrimidin-4-yl)piperazin-1-yl]-4-methyl-5-[(2-pyrrolidin-1-ylethyl)amino]phenyl}-4,4,4-trifluorobutan-1-one] | < 100 | < 100 |  |  |
| Brc1n[nH]c2ncnc(N3CCN(c4ccccc4)CC3)c12 [Entry 152, 3-bromo-4-(4-phenylpiperazin-1-yl)-1H-pyrazolo[3,4-d]pyrimidine] | ≥ 10000 | < 100 |  |  |
| Cc1c(CCCN2CCCC2)cc(Cl)cc1N1CCN(c2ncnc3[nH]nc(/C=C/C(=O)O)c23)CC1 [Entry 181, (2E)-3-(4-{4-[5-chloro-2-methyl-3-(3-pyrrolidin-1-ylpropyl)phenyl]piperazin-1-yl}-1H-pyrazolo[3,4-d]pyrimidin-3-yl)prop-2-enoic acid] | < 100 | < 100 |  |  |
| Fc1ccccc1N1CCN(c2ncnc3[nH]ccc23)CC1 [Entry 313, 4-[4-(2-fluorophenyl)piperazin-1-yl]-7H-pyrrolo[2,3-d]pyrimidine] |  |  | ≥ 10000 | 100 to 1000 |

The remaining lines, values ahead:

| IC50 (AktK; Table 1, class symbols per key) [nM] | IC50 (p70S6K; Table 1, class symbols per key) [nM] | IC50 (AktK) [nM] | IC50 (p70S6K) [nM] | Structure (SMILES) |
| --- | --- | --- | --- | --- |
|  |  | 1000 to 10000 | < 100 | CCc1n[nH]c2ncnc(N3CCN(c4cc(Cl)cc(C(=O)NCCN(C)C)c4OC)CC3)c12 [Entry 374, 5-chloro-N-[2-(dimethylamino)ethyl]-3-[4-(3-ethyl-1H-pyrazolo[3,4-d]pyrimidin-4-yl)piperazin-1-yl]-2-(methyloxy)benzamide] |
|  |  | 100 to 1000 | < 100 | Cc1ccc(Cl)cc1N1CCN(c2ncnc3[nH]nc(/C=C/C(=O)O)c23)CC1 [Entry 369, (2E)-3-{4-[4-(5-chloro-2-methylphenyl)piperazin-1-yl]-1H-pyrazolo[3,4-d]pyrimidin-3-yl}prop-2-enoic acid] |
| < 100 | < 100 |  |  | COC(=O)c1ccc(C)c(N2CCN(c3ncnc4[nH]nc(Br)c34)CC2)c1 [Entry 179, methyl 3-[4-(3-bromo-1H-pyrazolo[3,4-d]py-rimidin-4-yl)piperazin-1-yl]-4-methylbenzoate] |
| ≥ 10000 | 1000 to 10000 |  |  | CCOC(=O)c1cnc(C(F)(F)F)nc1N1CCN(c2ncnc3[nH]nc(CC)c23)CC1 [Entry 112, ethyl 4-[4-(3-ethyl-1H-pyrazolo[3,4-d]pyrimidin-4-yl)piperazin-1-yl]-2-(trifluoromethyl)pyrimidine-5-carboxylate] |
|  |  | 1000 to 10000 | < 100 | Cc1ccc(Cl)cc1N1CCN(c2ncnc3[nH]nc(C)c23)CC1 [Entry 321, 4-[4-(5-chloro-2-methylphenyl)piperazin-1-yl]-3-methyl-1H-pyrazolo[3,4-d]pyrimidine] |
|  |  | 1000 to 10000 | < 100 | CCc1n[nH]c2ncnc(N3CCN(c4cc(Cl)ccc4OC)CC3)c12 [Entry 334, 4-{4-[5-chloro-2-(methyloxy)phenyl]piperazin-1-yl}-3-ethyl-1H-pyrazolo[3,4-d]pyrimidine] |
| 1000 to 10000 | < 100 |  |  | CCc1n[nH]c2ncnc(N3CCN(c4cc(Cl)cc(N(C)CCN(C)C)c4C)CC3)c12 [Entry 82, N-{5-chloro-3-[4-(3-ethyl-1H-pyrazolo[3,4-d]pyrimidin-4-yl)piperazin-1-yl]-2-methylphenyl}-N,N′,N′-trimethylethane-1,2-diamine] |
|  |  | 1000 to 10000 | < 100 | CCc1n[nH]c2ncnc(N3CCN(c4cc(Cl)cc(C#CCN(C)C)c4C)CC3)c12 [Entry 385, 3-{5-chloro-3-[4-(3-ethyl-1H-pyrazolo[3,4-d]pyrimidin-4-yl)piperazin-1-yl]-2-methylphenyl}-N,N-dimethylprop-2-yn-1-amine] |
| 100 to 1000 | < 100 |  |  | CCc1n[nH]c2ncnc(N3CCN(c4cc(Cl)cc(NCCN(C)CC)c4C)CC3)c12 [Entry 147, N′-{5-chloro-3-[4-(3-ethyl-1H-pyrazolo[3,4-d]pyrimidin-4-yl)piperazin-1-yl]-2-methylphenyl}-N-ethyl-N-methylethane-1,2-diamine] |
|  |  | 1000 to 10000 | 100 to 1000 | Cc1ccc(Cl)cc1N1CCN(c2ncnc3[nH]nc(/C=C/C(=O)OC(C)(C)C)c23)CC1 [Entry 387, 1,1-dimethylethyl (2E)-3-{4-[4-(5-chloro-2-methylphenyl)piperazin-1-yl]-1H-pyrazolo[3,4-d]pyrimidin-3-yl}prop-2-enoate] |
| ≥ 10000 | 100 to 1000 |  |  | CCN(CC)CCOc1cccc(N2CCN(c3ncnc4[nH]nc(Br)c34)CC2)c1 [Entry 189, 2-({3-[4-(3-bromo-1H-pyrazolo[3,4-d]pyrimidin-4-yl)piperazin-1-yl]phenyl}oxy)-N,N-diethylethanamine] |
|  |  | 1000 to 10000 | 1000 to 10000 | CCc1n[nH]c2ncnc(N3CCN(c4cccc(Cl)c4)C(C(=O)NCCN(C)C)C3)c12 (stereo not shown) [Entry 360, 1-(3-chlorophenyl)-N-[2-(dimethylamino)ethyl]-4-(3-ethyl-1H-pyrazolo[3,4-d]pyrimidin-4-yl)piperazine-2-carboxamide] |
| 100 to 1000 | < 100 |  |  | CCc1n[nH]c2ncnc(N3CCN(c4cc(Cl)cc(NCCN(C)C(C)C)c4C)CC3)c12 [Entry 146, N′-{5-chloro-3-[4-(3-ethyl-1H-pyrazolo[3,4-d]pyrimidin-4-yl)piperazin-1-yl]-2-methylphenyl}-N-methyl-N-(1-methylethyl)ethane-1,2-diamine] |
| < 100 | < 100 |  |  | CCN(CC)CCNc1cc(Cl)cc(N2CCN(c3ncnc4[nH]nc(Br)c34)CC2)c1C [Entry 28, N′-{3-[4-(3-bromo-1H-pyrazolo[3,4-d]pyrimidin-4-yl)piperazin-1-yl]-5-chloro-2-methylphenyl}-N,N-diethylethane-1,2-diamine] |
|  |  | ≥ 10000 | 1000 to 10000 | CCc1n[nH]c2ncnc(N3CCN(c4cccc(Cl)c4)C(C(=O)OC)C3)c12 (stereo not shown) [Entry 346, methyl 1-(3-chlorophenyl)-4-(3-ethyl-1H-pyrazolo[3,4-d]pyrimidin-4-yl)piperazine-2-carboxylate] |
